TGI and GI50 data for 30 compounds are collected here from PubChem BioAssay (NCI).

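Test compounds were applied to cells in 96-well plates for 48 hours at 5 doses. The concentration for 50% growth inhibition is given as GI50. TGI: concentration producing complete growth inhibition.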 A value given as a limit tells only on which side of the number the result lay.

Holding throughout (assay): DTP human tumour cell line panel, 48 h
For test [1], the system named is HCC-2998 colon.
Test [2] has as its system SNB-75 CNS.
Test [3] has as its system KM12 colon.
Test [4] has as its system U251 CNS.
Test [5] relates to A549 NSCLC.
The subject of test [6] is M14 melanoma.
For test [7], the system named is SK-MEL-2 melanoma.
Test [8] concerns A498 renal.
Test [9] has as its system HCT-15 colon.

A word on the TGI: it is the concentration at which net growth stops. Higher therefore signals lower sensitivity of the cells. Regarding `COc1ccc(CCc2cc(OC)c(O)c(OC)c2)cc1`, the TGI in [1], in [2], in test [3], in test [4], in test [5] and in test [6] was above 100 µM each time. The compound also returned a TGI in [7] above 100 µM.

Turning to `C[Si](C)(C)C(Sc1ccccc1)(Sc1ccccc1)Sc1ccccc1`, the TGI in test [1], in test [2], in [3], in test [8], in [4] and in test [5] was above 100 µM in each case. Besides, the TGI in test [7] and in [9] was above 100 µM throughout.

Regarding `CCOC(=O)c1cccnc1C(OC(C)=O)OC(C)=O`, the TGI in [1], in test [2], in test [3], in [8], in test [4] and in [5] was above 100 µM each time. The TGI in [6], in [7] and in test [9] was above 100 µM in each case.

As for `COC(=O)C(=O)C(C(=O)C(=O)Nc1cc(C)ccc1C)c1nc2ccc(C(=O)c3ccccc3)cc2[nH]c1=O` (configuration not stated), the TGI in test [1], in test [3], in [4], in test [5], in [6] and in [7] was above 100 µM in each case. The compound further came in with a TGI in test [9] above 100 µM.

On to `O=c1cc(-c2ccccc2)[nH]c2cc(Cl)ccc12`, for which the TGI is 4.76 µM in test [1]; 6.07 µM in test [2]; 52.5 µM in test [3]; above 100 µM in test [8]; 3.91 µM in test [4]; above 100 µM in test [5]. Besides, the TGI is above 100 µM in test [6], above 100 µM in test [7] and 15.8 µM in [9].

For the compound `COC(=O)/C(=N\NC(N)=O)C(C(=O)C=C(C)C)C(=O)C(=O)Nc1ccc(Cl)c(Cl)c1` (configuration not stated), the TGI in test [1], in test [2], in [3], in test [8], in test [4] and in [5] was above 100 µM in each case. The TGI in test [6], in test [7] and in [9] was above 100 µM in each case.

As for `Cc1ccc2nc(NC(=O)/C(=N\NC(=S)NN)C3C(=O)NC(=S)NC3=O)sc2c1`, the TGI in test [1], in test [2], in test [3], in test [8], in test [4] and in test [5] was above 100 µM throughout. The TGI in test [6], in [7] and in [9] was above 100 µM in each case.

`CCOC(=O)C(C(O)c1ccc([N+](=O)[O-])cc1)P(=O)(OCC)OCC` (configuration not stated): the TGI in test [1], in [2], in test [3], in test [8], in test [4] and in [5] was above 100 µM in each case. In addition, the TGI in [6], in test [7] and in [9] was above 100 µM each time.

With `C=C(CCCO)[C@@H]1CC[C@@](C)(O)[C@H]1C`, the TGI in [1], in [2], in [3], in [4], in test [5] and in test [7] was above 100 µM each time. Also, the TGI in test [9] was above 100 µM.

For the compound `CCOC(=O)C(=O)Nc1ccccc1C(C)C`, the total growth inhibition concentration (TGI) in test [1], in [2], in test [3], in test [8], in [4] and in [5] was above 100 µM in each case. Moreover, the TGI in [6], in test [7] and in test [9] was above 100 µM throughout.

By GI50 is commonly meant the concentration that inhibits growth by half. Regarding `C[C@@H](Oc1cc(-n2cnc3ccc(OC[C@@H](O)CO)cc32)sc1C(N)=O)c1ccccc1Cl`, the GI50 in [1] was 0.0848 µM; in [2], 0.29 µM; in test [3], 0.0641 µM; in test [8], 0.148 µM; in test [4] it was 0.126 µM; in test [5], 0.889 µM. Moreover, the GI50 is 0.0993 µM in [6], 4.76 µM in [7] and 1.88 µM in [9]. The TGI in test [1] was above 25 µM; in test [2], 4.41 µM; in test [3] it was above 25 µM; in test [8], 1.2 µM; in [4] it was above 25 µM; in test [5] it was above 25 µM. Further, the TGI in test [6] is above 25 µM; in [7] it was 11.1 µM; in [9], above 25 µM.

On to `COc1ccc2nc(NC(=O)C(=O)NNC(=O)c3ccncc3)sc2c1`, for which the TGI in [1], in test [2], in [8], in [4], in test [5] and in [6] was above 100 µM in each case. Also, the TGI in test [9] is above 100 µM.

With `C/C(=N\NC(=O)CC(=O)N(C(=O)c1ccc(Cl)cc1)c1ccc(C)cc1)c1ccccc1O`, the TGI in [2] was 43.9 µM; in test [3] it was above 100 µM; in test [8], above 100 µM; in test [4] it was above 100 µM; in [5] it was above 100 µM; in [6], above 100 µM. Besides, the TGI in test [7] and in test [9] was above 100 µM in each case.

Take `CCN(CC)CCNc1ccc2nc(C)n3c4ccc(O)cc4c(=O)c1c23`: the TGI was 1.99 µM in [1]; 14.7 µM in [2]; 17.4 µM in [3]; 13.3 µM in [8]; 15.8 µM in test [4]; 1.25 µM in [5]. Also, the TGI turned out to be 16.2 µM in test [6], 20.3 µM in test [7] and 5.83 µM in test [9].

Consider `O=C1NC(c2cccc(OCc3ccccc3)c2)Nc2ccccc21` (configuration not stated), for which the TGI in test [1] is 0.621 µM; in test [2] it was 0.896 µM; in [3] it was 73.9 µM; in test [8], 4.68 µM; in test [4] it was 4.25 µM; in [5], above 49.6 µM. Besides, the total growth inhibition concentration (TGI) in test [6] is 38.8 µM; in test [7], 30 µM; in [9], 0.702 µM.

As to `Cc1ccccc1C1CC(c2ccccc2)=NO1` (configuration not stated), the TGI in test [1], in test [2], in test [3], in [8], in test [4] and in [5] was above 100 µM in each case. The TGI in test [6], in test [7] and in [9] was above 100 µM throughout.

For the compound `c1ccc(N/N=C2\NN=C(c3ccccc3)CS2)cc1`, the TGI was found to be 19.3 µM in [1]; 53.2 µM in [3]; 25.8 µM in [8]; 22.2 µM in [5]; 24.8 µM in test [6]; 44 µM in test [7]. In addition, the TGI in test [9] came to 20.9 µM.

Take `C1C[OH+]CC[OH+]CCNCC[OH+]CC[OH+]CCN1.Cl.[Cl-].[Pt+4]`: the GI50 in test [8], in test [4], in [5], in test [6] and in test [9] was above 100 µM throughout. For the same compound, the TGI in test [8], in test [4], in test [5], in test [6] and in [9] was above 100 µM in each case.

For `CCOC1CC2OC(=O)C1C=C2C(=O)OC` (configuration not stated), the TGI in [1] was above 100 µM; in [3], above 100 µM; in test [8], above 100 µM; in test [4], above 100 µM; in test [5] it was above 100 µM; in test [6], 38.6 µM. Besides, the TGI in test [7] was 65.7 µM; in [9], above 100 µM.

For the compound `CCN(CC)CCn1c2ccccc2c(=O)c2c(OC)ccc(OC)c21`, the TGI in test [3], in test [8], in test [4], in [5], in test [6] and in [7] was above 100 µM throughout. This compound also displayed a TGI in test [9] above 100 µM.

With `COCCn1cc(-c2csc(-c3c[nH]c4ccc(Br)cc34)n2)c2cccnc21`, the GI50 in test [1] was 3.8 µM; in test [2], 4.72 µM; in [3], 2.74 µM; in test [8] it was 3.02 µM; in test [4] it was 6.18 µM; in test [5] it was 6.89 µM. Also, the GI50 in test [6] is 3.27 µM; in [7], 6.82 µM; in [9], 3.14 µM. The TGI in test [1] was above 100 µM; in [2], 29.4 µM; in test [3], above 100 µM; in test [8], 15.9 µM; in test [4], 73.2 µM; in test [5] it was above 100 µM. Further, the TGI in [6] was 60.2 µM; in [7] it was 67.6 µM; in [9], above 100 µM.

Turning to `CCOP1(=O)C=C(C)C(=C(Cl)Cl)C(C)=C1` (configuration not stated), the TGI is 31.4 µM in test [1]; above 100 µM in test [2]; 5.11 µM in test [3]; 76.3 µM in test [8]; 50.9 µM in [4]; 58.8 µM in test [5]. For the same compound, the results for the TGI in [6], in [7] and in test [9] were 24.6 µM, 56.2 µM and 36.9 µM, respectively. The GI50 in test [2] is 30 µM; in [6], 10.7 µM.

Turning to `CCOCc1cc(=O)c2c(OC)cc3c(c2o1)CCC(C)(C)O3`, the TGI in [1], in test [2], in test [3], in test [4], in [5] and in [6] was above 100 µM throughout. Besides, the TGI in test [7] and in test [9] was above 100 µM each time.

`CC(C)C1N2CCCCC2[C@@H]2c3[nH]c4ccccc4c3CCN12` (some centres not stated): the TGI in [1], in [2], in test [8], in [4], in test [5] and in test [6] was above 100 µM in each case. For the same compound, the TGI in test [7] and in test [9] was above 100 µM each time.

Turning to `CCN=C(C#N)NCC`, the TGI in test [1], in test [2], in test [3], in test [8], in [4] and in test [5] was above 100 µM throughout. The TGI in [6], in test [7] and in [9] was above 100 µM each time.

Turning to `Cn1cnc([N+](=O)[O-])c1Sc1nccc(=O)[nH]1`, the TGI in test [1], in test [2], in test [3], in test [8], in test [4] and in test [5] was above 100 µM in each case. The TGI in test [6] and in [7] was above 100 µM throughout.

As for `CC1C2CC=CC(=O)[C@@]2(C)CCC12OCCO2` (some centres not stated), the TGI in test [1], in [2], in test [3], in test [8], in [4] and in test [5] was above 100 µM each time. For the same compound, the TGI in [6] and in test [7] was above 100 µM in each case.

Consider `COc1cc(/C=C2/C(=O)N(C(=O)OCc3ccccc3)C(Cc3cc(OC)c(OC)c(C)c3OC)C(=O)N2Cc2ccccc2)c(OC)c(C)c1OC` (configuration not stated), for which the total growth inhibition concentration (TGI) in [1], in test [2], in test [3], in [8], in test [4] and in [5] was above 100 µM throughout. Besides, the TGI in test [6] and in [7] was above 100 µM throughout.

Consider `CCCCN(CCCC)CCCn1cnc2ncccc2c1=O`, for which the TGI in test [1], in test [2], in test [3], in test [4], in [5] and in [6] was above 100 µM each time. Moreover, the TGI in test [7] is above 100 µM.

For `COC[C@H](C)N=CN1CCc2ccccc2C1(Cc1ccccc1)Cc1ccccc1`, the TGI in test [2] is 43 µM; in test [3] it was 27.3 µM; in test [4] it was 26.9 µM; in test [5], above 100 µM; in test [6] it was 22.7 µM; in test [7], 23.6 µM. This compound also came in with a TGI in test [9] of 39.1 µM.
